“And” between values parts separate entries of the source, which are not always exact repeats. Equal entries are not always repeated. Positions of bridges follow the written chain, without caps; N, C: chain ends. Residues, ends and D or L forms follow the SMILES beside them.
Assays:
[1] = target: T1, NPR-A signaling in HeLa cells (Homo sapiens, UniProt P16066); assay: cGMP AlphaScreen assay in HeLa cells (Examples 14, 15); type: cell-based; conditions: 30 minutes at 37° C.
T1 construct: Cyclic GMP (cGMP) elevation in HeLa cells in response to Natriuretic Peptide stimulation; endogenous in cells; host or cells: HeLa cells
T1 sequence (P16066 33-1061): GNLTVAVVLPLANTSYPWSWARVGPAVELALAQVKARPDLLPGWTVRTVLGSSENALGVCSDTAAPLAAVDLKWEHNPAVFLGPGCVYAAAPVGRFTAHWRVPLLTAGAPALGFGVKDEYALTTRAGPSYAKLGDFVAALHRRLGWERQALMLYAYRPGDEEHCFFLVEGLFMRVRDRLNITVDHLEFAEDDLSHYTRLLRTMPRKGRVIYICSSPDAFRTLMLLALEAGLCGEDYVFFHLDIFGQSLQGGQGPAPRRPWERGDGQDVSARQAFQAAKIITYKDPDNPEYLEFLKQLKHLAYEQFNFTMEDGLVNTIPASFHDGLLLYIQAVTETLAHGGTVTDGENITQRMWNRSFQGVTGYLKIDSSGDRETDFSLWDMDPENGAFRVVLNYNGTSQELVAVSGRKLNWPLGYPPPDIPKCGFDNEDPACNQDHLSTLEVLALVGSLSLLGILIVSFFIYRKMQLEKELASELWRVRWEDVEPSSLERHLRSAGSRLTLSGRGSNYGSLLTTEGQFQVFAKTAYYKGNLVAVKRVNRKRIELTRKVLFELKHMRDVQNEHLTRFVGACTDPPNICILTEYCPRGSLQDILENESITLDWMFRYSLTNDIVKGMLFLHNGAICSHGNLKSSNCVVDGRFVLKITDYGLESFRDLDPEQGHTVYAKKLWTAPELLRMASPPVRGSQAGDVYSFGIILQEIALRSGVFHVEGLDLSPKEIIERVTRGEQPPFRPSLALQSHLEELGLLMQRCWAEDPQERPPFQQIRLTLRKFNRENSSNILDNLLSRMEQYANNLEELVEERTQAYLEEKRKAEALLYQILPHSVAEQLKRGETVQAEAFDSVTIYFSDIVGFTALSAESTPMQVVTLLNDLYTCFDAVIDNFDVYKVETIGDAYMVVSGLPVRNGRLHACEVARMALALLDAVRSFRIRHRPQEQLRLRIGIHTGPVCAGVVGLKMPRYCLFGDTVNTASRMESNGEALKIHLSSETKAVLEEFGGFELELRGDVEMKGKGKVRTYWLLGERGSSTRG
Description: HeLa cells were maintained in RPMI cell culture medium (Gihco Invitrogen, Mt Waverley, Australia) supplemented with 10% Foetal Bovine Serum (Cambrex Bio Science, Rockland, USA). Upon reaching confluence, cells were sub-cultured such that they would be 70-90% confluent at time of assay.
Cyclic GMP (cGMP) elevation in HeLa cells in response to Natriuretic Peptide stimulation was performed using a cGMP AlphaScreen kit (PerkinElmer, Boston, USA), as follows for normal experiments: Cells were detached, pelleted to remove growth medium, and resuspended in Stimulation Buffer (Hank's Balanced Salt Solution, 0.1% Bovine Serum Albumin [BSA] (Sigma-Aldrich, Castle Hill, Australia), 1 mM 3-Isobutyl-1-methylxanthine [IBMX] (Sigma-Aldrich, Castle Hill, Australia)) and diluted to 6×10^6 cells per mL (30 000 cells per 5 μL). 5 μL of cells were added to wells of white 384-well OptiPlates (PerkinElmer, Boston, USA), and stimulated with increasing concentrations of peptide for 30 minutes at 37° C. Cells were then lysed with 10 μL Lysis buffer (dH2O, 0.3% Tween-20 (Sigma-Aldrich, Castle Hill, Australia), 5 mM HEPES (JRH Biosciences, Kansas, USA) and 0.1% BSA) and 5 μL acceptor bead mix (10 μL per mL acceptor beads and 1/3000 anti-cGMP antibody (BioVision, Mountain View, USA) in lysis buffer) added per well in the dark. Plates were incubated in the dark at room temperature for 30 minutes, then 5 μL donor bead mix (10 μL per ML donor beads and 0.3 nM biotinylated cGMP in lysis buffer) was added per well in the dark and the plate incubated overnight at room temperature. Signal was read using an EnVision plate reader (PerkinElmer, Boston, USA) and data analysed using Prism software. The cGMP standard curve was performed as per manufacturer's instructions.
To examine whether TNPc and synthetic analogs produced in the inventors' laboratory could stimulate NPR-A signaling, cGMP elevations in HeLa cells in response to these peptides were measured, as described above.

[2] = test system: denuded aortic rings, GC A receptor; assay: Relaxation of noradrenaline constricted endothelium-denuded aortic rings (Example 11); set-up: species or system rat; conditions: GC-A mediated
In short: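 Endothelium-denuded thoracic aortic rings (5 mm) from male Sprague Dawley rats were held at 10 g tension in carbogenated physiological salt solution at 37 °C. Denudation was confirmed by under 10% ACh (10 μM) relaxation after phenylephrine (0.3 μM). Rings constricted with noradrenaline, scaled to 40 mM KCl contraction, were relaxed with increasing peptide doses, with at least 3 rings per peptide.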

[3] = −Log10EC50 (pEC50) ± Standard Error, cGMP accumulation in HeLa cells

With `CC[C@H](C)[C@H](NC(=O)[C@H](CCCCN)NC(=O)[C@H](CO)NC(=O)[C@H](CC(=O)O)NC(=O)[C@@H](N)CO)C(=O)NCC(=O)N[C@@H](CC(N)=O)C(=O)NCC(=O)N[C@H]1CSSC[C@@H](C(=O)N[C@@H](CC(N)=O)C(=O)N[C@@H](CCCNC(=N)N)C(=O)N[C@H](C(=O)N[C@@H](CCSC)C(=O)N[C@@H](CCC(N)=O)C(=O)N[C@@H](CC(N)=O)C(=O)N2CCC[C@H]2C(=O)N2CCC[C@H]2C(=O)N[C@@H](CCCCN)C(=O)N[C@@H](CCCCN)C(=O)N[C@@H](Cc2ccccc2)C(=O)N[C@@H](CO)C(=O)NCC(=O)N[C@@H](CCC(=O)O)C(=O)O)[C@@H](C)CC)NC(=O)CNC(=O)[C@H](CC(C)C)NC(=O)CNC(=O)[C@H](CO)NC(=O)[C@H](C(C)C)NC(=O)[C@H](CO)NC(=O)CNC(=O)[C@H]([C@@H](C)CC)NC(=O)[C@H](CCCNC(=N)N)NC(=O)[C@H](CC(=O)O)NC(=O)[C@H](CC(C)C)NC(=O)[C@@H]2CCCN2C(=O)[C@H](Cc2ccccc2)NC(=O)CNC(=O)[C@H](Cc2ccccc2)NC1=O` [TNPc] (H-SDSKIGNGCFGFPLDRIGSVSGLGCNRIMQNPPKKFSGE-OH; disulfide 9-25) the EC50 [1, 3] was 124000 nM and the “Mean relaxation SEM of denuded aortic rings expressed as % of KCl response” value [2] was 55.0 ± 10.7%.

For `CC[C@H](C)[C@@H]1NC(=O)[C@H](CCCNC(=N)N)NC(=O)[C@H](CC(=O)O)NC(=O)[C@H](CCSC)NC(=O)[C@H](CCCNC(=N)N)NC(=O)CNC(=O)CNC(=O)[C@H](Cc2ccccc2)NC(=O)[C@@H](NC(=O)[C@H](CO)NC(=O)[C@H](CO)NC(=O)[C@H](CCCNC(=N)N)NC(=O)[C@H](CCCNC(=N)N)NC(=O)[C@H](CC(C)C)NC(=O)[C@@H](N)CO)CSSC[C@@H](C(=O)N[C@@H](CC(N)=O)C(=O)N[C@@H](CO)C(=O)N[C@@H](Cc2ccccc2)C(=O)N[C@@H](CCCNC(=N)N)C(=O)N[C@@H](Cc2ccc(O)cc2)C(=O)O)NC(=O)CNC(=O)[C@H](CC(C)C)NC(=O)CNC(=O)[C@H](CO)NC(=O)[C@H](CCC(N)=O)NC(=O)[C@H](C)NC(=O)CNC1=O` [hANP, reference compound], the “Mean relaxation SEM of denuded aortic rings expressed as % of KCl response” value [2] was 66% and 66.5 ± 2.3%.

`CC[C@H](C)[C@@H]1NC(=O)[C@H](CCCCN)NC(=O)[C@H](Cc2c[nH]cn2)NC(=O)CNC(=O)[C@H](Cc2ccccc2)NC(=O)[C@@H](NC(=O)[C@@H]2CCCN2C(=O)[C@H](CC(=O)O)NC(=O)[C@H](Cc2ccc(O)cc2)NC(=O)[C@H](CCCCN)NC(=O)[C@@H](NC(=O)[C@@H](N)CCC(=O)O)C(C)C)CSSC[C@@H](C(=O)N2CCC[C@H]2C(=O)N[C@@H](CO)C(=O)N[C@@H](CC(C)C)C(=O)N[C@@H](CCCNC(=N)N)C(=O)N[C@@H](CC(=O)O)C(=O)N2CCC[C@H]2C(=O)N[C@@H](CCCNC(=N)N)C(=O)N2CCC[C@H]2C(=O)N[C@@H](CC(N)=O)C(=O)N[C@@H](C)C(=O)N2CCC[C@H]2C(=O)N[C@@H](CO)C(=O)N[C@H](C(=O)N[C@@H](CO)C(=O)N[C@@H](C)C(=O)O)[C@@H](C)O)NC(=O)CNC(=O)[C@H](CC(C)C)NC(=O)[C@H](CC(N)=O)NC(=O)[C@H](CO)NC(=O)[C@H](C(C)C)NC(=O)[C@H](Cc2c[nH]cn2)NC(=O)[C@H](CC(N)=O)NC(=O)[C@H]([C@@H](C)CC)NC(=O)[C@H](CCCNC(=N)N)NC(=O)[C@H](CC(=O)O)NC1=O` [DNP, reference compound] (H-EVKYDPCFGHKIDRINHVSNLGCPSLRDPRPNAPSTSA-OH; disulfide 7-23; N-terminus and C-terminus assumed) gave an EC50 ([1]; EC50, cGMP accumulation in HeLa cells) of 0.392 nM and an EC50 [1, 3] of 0.382 nM.
